Reference: patent US20200131669A1, “CYCLIC PEPTIDE COMPOUND HAVING HIGH MEMBRANE PERMEABILITY, AND LIBRARY CONTAINING SAME” (Chugai Seiyaku Kabushiki Kaisha, priority 2017, published 2020)
Starred links: 1 amine or outer side, 2 acyl side, 3 side chain; linkers in the order of their positions; H or OH if unused. Positions of bridges follow the written chain, without caps; N, C: chain ends. Non-standard residues stand in square brackets, D forms with d. Residues, ends and D or L forms follow the SMILES beside them. *: point of attachment. X1 = CC(CC(=O)[*:2])C(=O)[C@@H](N[*:1])[C@@H](C)O; NMePhe(3-Cl) = CN[C@@H](Cc1cccc(Cl)c1)C(=O)O; X8 = O=C(CN(CCN1CCC(F)(F)CC1)[*:1])[*:2]; NMeF = CN[C@@H](Cc1ccccc1)C(=O)O; NMeGABA = CN(CCCC(=O)[*:2])[*:1]; NMeD = CN[C@@H](CC(=O)O)C(=O)O; NMeL = CN[C@@H](CC(C)C)C(=O)O; NMeV = CN[C@H](C(=O)O)C(C)C; hSer = N[C@@H](CCO)C(=O)O; Piperidide = C1CCN(*)CC1; dNMeA = CN[C@H](C)C(=O)O; Ethyl(2-OH) = OCC*; Sar = CNCC(=O)O; tBu = CC(C)(C)*

Legend:
[1] = Caco-2 membrane permeability, improved method as used in the following Examples (96-well, 20 to 24 h preincubation); type: in vitro ADME; conditions: human, Caco-2, Caco-2 (cm/sec)
In short: (§1)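 Caco-2 monolayers were grown three weeks and preincubated 20–24 h at 37 °C with compound in DMEM+FaSSIF (1% DMSO) apically. The assay then used compound in FaSSIF/HBSS (1% DMSO, pH 6.0) apically and HBSS with 4% BSA (pH 7.4) basally. Basal samples were taken at 180 min for LC/MS, and Papp (cm/sec) was calculated.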

Caco-2 cells [2] = assay: as above; type: in vitro ADME
In short: as §1

Caco-2 cells [3] = conditions: Ozeki et al. 2015, cited from earlier work; for decrease in the concentration on the Apical side: 120 minutes of incubation

CC(C)C[C@H]1C(=O)N[C@@H]([C@@H](C)O)C(=O)N(C)CC(=O)N(C)[C@@H](C(C)C)C(=O)N[C@@H](Cc2ccccc2)C(=O)N(C)[C@@H](Cc2cccc(Cl)c2)C(=O)N(C)[C@@H](CC(C)C)C(=O)N(C)[C@H](C(=O)N2CCCCC2)CC(=O)N2CCC[C@@H]2C(=O)N[C@@H](Cc2ccccc2)C(=O)N[C@@H](COC(C)(C)C)C(=O)N1C [pd163] ([dP]FS(tBu)[NMeL]T[Sar][NMeV]F[NMePhe(3-Cl)][NMeL][NMeD]-Piperidide; lactam N-11)
Papp A→B at 180 min [1]: 1.7 ×10⁻⁶ cm/s | Caco-2 (Caco-2 cells [2]; Caco-2): 1.7e-06 cm/s

CC(C)NCC(O)COc1cccc2ccccc12 (stereo not shown) [propranolol]
decrease in the concentration on the Apical side (Caco-2 cells [3]): approximately 40% | added drug distributed in the cells after completion of incubation (Caco-2 cells [3]): approximately 8%

CC(C)C[C@H]1C(=O)N[C@@H]([C@@H](C)O)C(=O)N(C)CC(=O)N(C)[C@@H](C(C)C)C(=O)N[C@@H](Cc2ccccc2)C(=O)N(C)[C@@H](Cc2cccc(Cl)c2)C(=O)N(C)[C@@H](CC(C)C)C(=O)N(C)[C@H](C(=O)N2CCCCC2)CC(=O)N(C)[C@H](C)C(=O)N[C@@H](Cc2ccccc2)C(=O)N[C@@H](COC(C)(C)C)C(=O)N1C [pd167] ([dNMeA]FS(tBu)[NMeL]T[Sar][NMeV]F[NMePhe(3-Cl)][NMeL][NMeD]-Piperidide; lactam N-11)
Papp A→B at 180 min [1]: 1.7 ×10⁻⁶ cm/s | Caco-2 (Caco-2 cells [2]; Caco-2): 1.7e-06 cm/s

CC(C)C[C@H]1C(=O)N[C@@H]([C@@H](C)O)C(=O)C(C)CC(=O)N(C)[C@@H](C(C)C)C(=O)N[C@@H](Cc2ccccc2)C(=O)N(C)[C@@H](Cc2cccc(Cl)c2)C(=O)N(C)[C@@H](CC(C)C)C(=O)N(C)[C@H](C(=O)N2CCCCC2)CC(=O)N2CCC[C@H]2C(=O)N[C@@H](Cc2ccccc2)C(=O)N[C@@H](COC(C)(C)C)C(=O)N1C (stereo partly shown) [pd162] (PFS(tBu)[NMeL][X1][NMeV]F[NMePhe(3-Cl)][NMeL][NMeD]-Piperidide; lactam N-10)
Papp A→B at 180 min [1]: 1.2 ×10⁻⁶ cm/s | Caco-2 (Caco-2 cells [2]; Caco-2): 1.2e-06 cm/s

COCCc1ccc(OCC(O)CNC(C)C)cc1 (stereo not shown) [metoprolol]
decrease in the concentration on the Apical side (Caco-2 cells [3]): approximately 20%

CCOCC[C@@H]1NC(=O)[C@H](CC(C)C)N(C)C(=O)CN(C)C(=O)[C@H]([C@@H](C)O)NC(=O)[C@H](CC(C)C)N(C)C(=O)[C@H](CC(C)C)NC(=O)[C@H](Cc2ccccc2)N(C)C(=O)[C@@H](CC(C)C)NC(=O)C[C@@H](C(=O)N2CCCCC2)NC(=O)[C@H](CC(C)C)N(C)C(=O)[C@H](Cc2ccccc2)N(C)C1=O [pd444] ([dL][NMeF]L[NMeL]T[Sar][NMeL][hSer](Et)[NMeF][NMeL]D-Piperidide; lactam N-11)
Caco-2 (Caco-2 cells [2]; Papp, Caco-2 membrane permeability, improved method): 1.1e-06 cm/s

CC[C@H](C)[C@H]1C(=O)N[C@@H]([C@@H](C)O)C(=O)N(C)CC(=O)N(C)[C@@H](C)C(=O)N[C@H](C(=O)N2CCCCC2)CC(=O)N(C)[C@@H](C)C(=O)N[C@@H](C(C)C)C(=O)N(C)[C@@H](CC(C)C)C(=O)N(C)[C@@H](Cc2ccccc2)C(=O)NC(COc2cccc(Cl)c2)C(=O)N(C)[C@@H](Cc2ccccc2)C(=O)N1C (stereo partly shown) [pd186]
Caco-2 (Caco-2 cells [2]; human, Caco-2, 180 min): 1.8e-06 cm/s

CC(C)C[C@H]1C(=O)N[C@@H](C(C)C)C(=O)N(C)[C@@H](Cc2ccccc2)C(=O)N(C)[C@@H](Cc2ccccc2)C(=O)N[C@@H](COC(C)(C)C)C(=O)N(C)[C@@H](CC(C)C)C(=O)N[C@@H](COCCO)C(=O)N(C)[C@@H](CC(C)C)C(=O)N(C)[C@@H](CC(C)C)C(=O)N[C@H](C(=O)N2CCCCC2)CC(=O)N(C)CCCC(=O)N1C [pd498] ([NMeGABA][NMeL]V[NMeF][NMeF]S(tBu)[NMeL]S(Ethyl(2-OH))[NMeL][NMeL]D-Piperidide; lactam N-11)
Caco-2 (Caco-2 cells [2]; human, Caco-2, 180 min): 1.1e-06 cm/s

CC(C)C[C@H]1C(=O)N[C@H](C(=O)N2CCCCC2)CC(=O)N(C)CC(=O)N(C)[C@@H](Cc2ccccc2)C(=O)N[C@@H](C(C)C)C(=O)N(C)[C@@H](CC(C)C)C(=O)N[C@@H]([C@@H](C)O)C(=O)N(CCN2CCC(F)(F)CC2)CC(=O)N(C)[C@@H](Cc2ccccc2)C(=O)N(C)[C@@H](CC(C)C)C(=O)N[C@@H](COC(C)(C)C)C(=O)N1C [pd455] ([Sar][NMeF]V[NMeL]T[X8][NMeF][NMeL]S(tBu)[NMeL]D-Piperidide; lactam N-11)
Caco-2 (Caco-2 cells [2]; human, Caco-2, 180 min): 1.1e-06 cm/s
